Measurements reported in PMC11374660, “The novel family of Warbicin® compounds inhibits glucose uptake both in yeast and human cells and restrains cancer cell proliferation” (Frontiers in Oncology, 2024).

What was measured:
[1] = test system: A549 lung adenocarcinoma cells; parameters: method as in PMID 22689530; details: previously reported; ref [67]; cited from earlier work
yeast tps1Δ strain = assay: Growth (rescue) of the yeast tps1Δ strain on galactose with or without glucose; assay type: cell-based, S. cerevisiae; details: 100 µM, 2.5 mM glucose
Protocol: Growth curves were made by measuring OD595 in a 96-well plate using the Multiskan™ FC Microplate Photometer (Thermo Fisher Scientific). Typically, for tps1Δ rescue experiments, cells were (pre)grown in Complete Synthetic medium containing 110 mM galactose. Compounds were always added 10 min prior to glucose addition to ensure maximal interaction between the cells and compounds. Cells originating from the preculture were harvested, washed in medium without sugar, after which they were resuspended to an OD of 0.1 in 200 µL of the appropriate medium. At least three technical replicates were included per condition. OD595 was measured at 30°C every 30 min with a 10-min shaking interval.

female NMRI-nu mice = assay: In vivo toxicity and tolerability in mice
Protocol: Warbicin ® in vivo toxicity and tolerability was examined by subjecting female NMRI-nu mice (12 weeks old) to daily intraperitoneal injection of either WBC-A, WBC-15C, WBC-4C or WBC-11C. Compounds were dosed at either 5 mg/kg, 10 mg/kg or 20 mg/kg over a period of 20 days. Three mice were used per condition. To evaluate toxicity, change in body weight was registered daily. As a humane endpoint, mice that lost more than 20% of their original body weight were prematurely sacrificed. In addition, liver function was examined by measuring the ratio of the AST to ALT enzyme activities (AbCam ab105135, ab105134) in sera samples collected at the end of the experiment. Furthermore, the blood glucose level in mice sera was determined using the colorimetric GOD-PAP method. Due to their considerable hydrophobicity, the compounds were dissolved in a sterilized 1xPBS, 5% DMSO and 5% Tween-80 solution until a homogenous suspension was obtained that could be administered in a reproducible way.

[2] = Solubility of compound stocks; assay type: physicochemical; details: 100% DMSO
Protocol: WBC-A and the complete structural analog library ( Supplementary Table 2 ) were purchased from different vendors, i.e. Enamine (n = 185), Life Chemicals (n = 10), LabNetwork (n = 4) and Uorsy (n = 4). WBC compounds in general are very insoluble in aqueous solutions, challenging their solubilization. Throughout this work, WBC compounds were always stock aliquoted at 50 mM concentration in 100% DMSO. In many cases, gentle sonication and heating up to 37°C was necessary to completely solubilize the compound stocks. Whereas WBC-A, -15C, -4C and -11C could be dissolved at 50 mM, some structural analogs remained in smooth or rough suspension, regardless of the concentration. Even though it is recommended to aliquot compound stocks, no significant decrease in compound strength by repeated freeze and thaw cycles in DMSO was observed.

[3] = test system: A549 lung adenocarcinoma cells; assay: Glucose consumption and lactate production over 8 h, A549; assay type: cell-based, human; details: A549, 25 µM, 1 mM glucose
Protocol: The influence of WBC compounds on glucose consumption over a longer time period was studied in the A549 adenocarcinoma and KMS-12-PE multiple myeloma cell lines. As such, different parameters needed to be optimized depending on whether cells were adherent or in suspension. As such, A549 cells were incubated at 125,000 cells/well in a 24-well plate in 300 µL RPMI medium for 8 h. For the KMS-12-PE cell line, 100,000 cells/well were incubated in 100 µL RPMI medium in a 96-well plate for 8 h. Medium was collected, spun down and HPLC-analyzed for measuring glucose and lactate levels. Metabolite levels were corrected for cell number, which always varied little over the span of 8 h. For every condition, at least 4 technical repeats were included.

[4] = test system: 2-deoxyglucose uptake in A549 lung adenocarcinoma cells; assay: 2-deoxyglucose uptake in A549 lung adenocarcinoma cells; assay type: cell-based, human
Protocol: Zero-trans glucose uptake in A549 cells was approximated by measuring the uptake of [1,2-^3H]2-deoxyglucose. For this purpose, A549 cells were pregrown in RPMI medium containing 10 mM glucose in a 24-well plate to a cell density of around 100,000 cells/well. Prior to adding radioactive label, cells were gently washed twice in Krebs-Ringer-HEPES buffer (50 mM HEPES pH 7.4, 137 mM NaCl, 4.7 mM KCl, […], 1.3 mM MgSO4 and 0.1% w/v BSA) at 30°C to remove any residual sugar. RPMI medium without sugar containing the compound intended for treatment, was added to the cells for 15 min at 37°C to allow adequate interaction of the cells with the compound. The uptake measurement was initiated by adding an equal volume of medium containing radiolabeled 2DG. After 3 - 4 min incubation at 37°C, medium was aspirated and cells were gently washed three times with ice-cold Krebs-Ringer-HEPES buffer. Cells were lysed by adding 200 µL of ice-cold 0.1 M NaOH solution and incubating the plate for 10 min at 37°C. Cell lysates were transferred to scintillation vials for subsequent scintillation counting. For blank measurements, cells were incubated with 50 µM Cytochalasin B prior to the uptake measurement.

[5] = test system: A549 lung adenocarcinoma cells; assay: Proliferation of A549 lung adenocarcinoma cells; assay type: cell-based, human
Protocol: (§1) For both adherent A549 and MCF10A H-RAS^V12 cell lines, growth curves were established using the IncuCyte® ZOOM technology. By collecting phase contrast images, the IncuCyte® software provides a calculated confluency percentage from which growth curves can be deducted. The cell number/density was measured by calculating the confluency of phase objects (cells) sticking on the bottom of the well. Cells were seeded at a density of 1000 - 1500 cells/well in a Nunc-Edge™ 96-well plate (Thermo Fisher Scientific) and growth was typically measured over 3 to 5 days. For the measurement of apoptosis induction using the MCF10A H-RAS^V12 cell line, the IncuCyte® Caspase-3/7 green dye was added to the medium in the recommended concentration at the beginning of the growth curve experiment. Apoptosis was detected by taking fluorescent images by excitation at 488 nm followed by IncuCyte® software analysis. Cell growth of the KMS-12-PE multiple myeloma cell line, which grows in suspension, was measured by manual cell counting. Cells were initially seeded at a density of 10^4 cells/well and incubated for 4 days after which the cell number was counted. For all cell lines, the same medium used for pregrowth was also used for the growth curve experiment, albeit with different glucose concentrations depending on the experimental design. With compound administration, the final concentration of DMSO never exceeded 0.1%. Typically, at least four technical repeats were included per condition.

[6] = test system: MCF10A breast epithelial cell line transformed with H-RAS^V12; assay: Growth and apoptosis of MCF10A H-RAS^V12 cells (IncuCyte); assay type: cell-based, human; details: MCF10A H-RAS^V12, 1 mM glucose, 25 µM
Protocol: as §1

| Structure (SMILES) | inhibition of A549 proliferation [1] | Rescue of the tps1∆ strain on 2.5 mM glucose at 100 µM (yeast tps1Δ strain) | abnormalities / toxic effects in liver and other organs at autopsy (female NMRI-nu mice; daily i.p., 20 days, toxic effects at 20 mg/kg WBC-15C and at 20 and 10 mg/kg WBC-11C, not at lower doses) | loss in body weight (female NMRI-nu mice; nude mice, daily intraperitoneal injection, 5, 10 and 20 mg/kg, 20 days) | AST/ALT ratio vs vehicle (female NMRI-nu mice; sera after 20 days, 5, 10, 20 mg/kg daily i.p.) | blood glucose level vs vehicle (female NMRI-nu mice; sera post-mortem after 20 days, 5, 10, 20 mg/kg daily i.p.) | concentration at which compound could be dissolved [2] [µM] | inhibition of glucose consumption and lactate production [3] | type of inhibition of 2-deoxyglucose uptake (Lineweaver-Burk) [4] | K'i for 2-deoxyglucose uptake ([4]; Dixon plot (Ki = K'i) or Cornish-Bowden plot (WBC-11C)) [µM] | Ki ([4]; read-out: Ki for 2-deoxyglucose uptake (Dixon plot)) [µM] | Selected from primary screen for growth inhibition of A549 cells at 50 µM ([5]; 50 µM, RPMI 1 mM glucose) | relative potency in reducing maximal growth rate of A549 cells ([5]; 1 mM glucose, 6.25-50 µM) | Selected for having an IC50 ratio (10 mM glucose : 1 mM glucose) of A549 growth higher than WBC-A ([5]; ratio of IC50 on 10 mM and 1 mM glucose, compared to WBC-A) | inhibition of proliferation [6] |
| --- | --- | --- | --- | --- | --- | --- | --- | --- | --- | --- | --- | --- | --- | --- | --- |
| O=C(Oc1cccc(F)c1OC(=O)c1cccc(O)c1)c1cccc(O)c1 [WZB-117] | inhibition of its proliferation |  |  |  |  |  |  |  |  |  |  |  |  |  |  |
| Cc1nc(NCC(=O)NCc2ccco2)c2c(-c3ccccc3)csc2n1 [WBC-4C] |  | No | No other abnormalities | one single mouse treated with 20 mg/kg WBC-4C that was sacrificed at day 19 because of 20% weight loss | No significant difference | No significant difference | ≥ 50000 | inhibited glucose consumption and lactate production | noncompetitive | 26.75 | 26.8 | Yes | intermediate potency | Higher IC50 ratio and confirmed | highest potency |
